According to the supplement of paper PMC10307832:

Key:
Experiment in all cases: relative viability (nuclei count vs DMSO), 5 days (fraction); higher = more cells survive
[1] = compound: CCC1=CN=CN=C1N2CCN(CC2)CC3=NC4=C(N3)C=C(C=C4)C(F)(F)F + CS(=O)(=O)CCNCc1ccc(-c2ccc3ncnc(Nc4ccc(OCc5cccc(F)c5)c(Cl)c4)c3c2)o1 [Lapatinib] (partner 2 µM)
Summary of the method: (§1)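 Relative viability divides the nuclei count in treated wells by that in vehicle wells. Lung cancer cell lines were seeded in 1536-well plates, dosed by pin tool the next day, and fixed and stained after 5 days in one step with final 0.05% Triton X-100, 1% formaldehyde and 1 ug/ml Hoechst. Dosing was a single drug or a fixed anchor-drug dose plus five library-drug doses (not always all listed) in √10 steps, and values are medians of duplicate plates imaged at 4×.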

[2] = compound: CCC1=CN=CN=C1N2CCN(CC2)CC3=NC4=C(N3)C=C(C=C4)C(F)(F)F + NC(=O)Nc1cc(-c2cccc(F)c2)sc1C(=O)N[C@H]1CCCNC1 [AZD7762] (partner 0.2 µM)
Summary of the method: as §1

Mirin + Olaparib = compound: N=C1NC(=O)/C(=C/c2ccc(O)cc2)S1 [Mirin] + O=C(c1cc(Cc2n[nH]c(=O)c3ccccc23)ccc1F)N1CCN(C(=O)C2CC2)CC1 [Olaparib] (partner 8 µM)
Summary of the method: as §1

Mirin + Trametinib = compound: N=C1NC(=O)/C(=C/c2ccc(O)cc2)S1 [Mirin] + CC(=O)Nc1cccc(-n2c(=O)n(C3CC3)c(=O)c3c(Nc4ccc(I)cc4F)n(C)c(=O)c(C)c32)c1 [Trametinib] (partner 0.02 µM)
Summary of the method: as §1

| Cell Line | relative viability ([1]; first compound 0.04 µM) | relative viability ([1]; first compound 0.1265 µM) | relative viability ([1]; first compound 0.4 µM) | relative viability ([1]; first compound 1.265 µM) | relative viability ([1]; first compound 4 µM) | relative viability ([2]; first compound 0.04 µM) | relative viability ([2]; first compound 0.1265 µM) | relative viability ([2]; first compound 0.4 µM) | relative viability ([2]; first compound 1.265 µM) | relative viability ([2]; first compound 4 µM) | relative viability (Mirin + Olaparib; first compound 0.25 µM) | relative viability (Mirin + Olaparib; first compound 0.7906 µM) | relative viability (Mirin + Olaparib; first compound 2.5 µM) | relative viability (Mirin + Olaparib; first compound 7.906 µM) | relative viability (Mirin + Olaparib; first compound 25 µM) | relative viability (Mirin + Trametinib; first compound 0.25 µM) | relative viability (Mirin + Trametinib; first compound 0.7906 µM) | relative viability (Mirin + Trametinib; first compound 2.5 µM) | relative viability (Mirin + Trametinib; first compound 7.906 µM) | relative viability (Mirin + Trametinib; first compound 25 µM) |
| --- | --- | --- | --- | --- | --- | --- | --- | --- | --- | --- | --- | --- | --- | --- | --- | --- | --- | --- | --- | --- |
| NCI-H1993 | 0.777 | 0.842 | 0.69 | 0.8 | 0.747 | 0.747 | 0.822 | 0.726 | 0.783 | 0.678 | 1.07 | 1.07 | 1.12 | 0.932 | 0.962 | 0.506 | 0.519 | 0.533 | 0.336 | 0.546 |
| NCI-H2085 | 0.713 | 0.704 | 0.797 | 0.571 | 0.784 | 0.75 | 0.941 | 0.987 | 0.791 | 1.03 | 0.773 | 0.752 | 0.773 | 0.949 | 0.808 | 0.514 | 0.465 | 0.519 | 0.511 | 0.59 |
| NCI-H2087 | 1.07 | 0.963 | 1.08 | 0.914 | 0.818 | 1.34 | 1.26 | 1.43 | 1.17 | 1.21 | 0.602 | 0.559 | 0.611 | 0.671 | 0.498 | 0.292 | 0.211 | 0.161 | 0.19 | 0.209 |
| NCI-H2126 | 0.772 | 0.713 | 0.708 | 0.736 | 0.838 | 0.97 | 1.02 | 0.957 | 1.02 | 1.17 | 0.929 | 0.925 | 0.951 | 0.947 | 0.959 | 0.604 | 0.568 | 0.552 | 0.56 | 0.501 |
| NCI-H2170 | 0.277 | 0.263 | 0.267 | 0.27 | 0.296 | 0.899 | 0.832 | 0.83 | 0.724 | 0.941 | 0.582 | 0.548 | 0.576 | 0.597 | 0.601 | 0.981 | 0.875 | 0.976 | 0.915 | 0.859 |
| NCI-H2347 | 1.06 | 0.793 | 0.985 | 0.828 | 1.1 | 0.708 | 0.699 | 0.823 | 0.645 | 0.905 | 0.639 | 0.639 | 0.602 | 0.612 | 0.588 | 0.301 | 0.313 | 0.26 | 0.3 | 0.274 |
| NCI-H2405 | 1.04 | 1.17 | 1.11 |  | 1.2 | 0.772 | 0.735 | 0.674 |  | 0.901 | 0.916 |  | 0.898 | 0.97 | 0.838 | 0.615 |  | 0.6 | 0.594 | 0.645 |
| NCI-H3122 | 1.11 | 0.992 | 1 | 1.03 | 0.961 | 0.971 | 0.947 | 0.957 | 1.04 | 0.977 | 0.691 | 0.667 | 0.566 | 0.623 | 0.664 | 0.221 | 0.218 | 0.25 | 0.176 | 0.221 |
| PC-3 [JPC-3] | 0.473 | 0.425 | 0.374 | 0.441 | 0.523 |  | 0.688 | 0.69 | 0.683 | 0.808 | 1.14 | 1.23 | 1.19 | 1.21 | 1.23 | 0.669 | 0.72 | 0.7 | 0.73 | 0.786 |
| PC-14 | 0.34 | 0.264 | 0.304 | 0.246 | 0.329 | 0.317 | 0.337 | 0.338 | 0.387 | 0.395 | 0.25 | 0.34 | 0.313 | 0.308 | 0.271 | 0.788 | 0.893 | 0.725 | 0.725 | 0.776 |
| RERF-LC-KJ | 0.81 | 0.811 | 0.863 | 0.79 | 0.825 | 0.795 | 0.953 | 0.976 | 0.97 | 0.952 | 1.03 | 1.12 | 0.941 | 0.972 | 0.875 | 0.897 | 0.975 | 0.782 | 0.842 | 0.816 |
